Measurements taken from PMC6657668, “Porcine Beta-Defensin 2 Provides Protection Against Bacterial Infection by a Direct Bactericidal Activity and Alleviates Inflammation via Interference With the TLR4/NF-κB Pathway” (Frontiers in Immunology, 2019).
Where a SMILES comes first, the peptide text is derived from it.

How the values were obtained:
[1] = system: NF-κB; test: NF-κB promoter activity, luciferase reporter assay in RAW 264.7 cells; assay type: cell-based, mouse; conditions: n = 6
Description: A luciferase reporter assay was used to detect the promoter activity of NF-κB. RAW 264.7 cells were seeded in a 24-well plate for 24 h and then cotransfected with 800 ng/well of the NF-κB reporter plasmid (pGL3-Basic) and 20 ng/well of pLR-TK. WT […] luciferase (Rluc) served as the reporter gene control vector. […] In the inhibition assay, the cells were pre-treated with 1 μg/ml TLR4 inhibitor for 1 h and treated with LPS (1 μg/ml) alone or together with PBD-2 (10 μg/mL) for 24 h (n = 6 each group). Luciferase units were detected to show the promoter activity of NF-κB ([28]).

[2] = set-up: method as in 2 sources, one per row (each row's own in cited_ref): ref [13] = [13]; PMID 27383796; doi:10.5713/ajas.16.0207; 13. Xu J Zhong F Zhang Y Zhang J Huo S Lin H . Construction of Bacillus subtilis strain engineered for expression of porcine beta-defensin-2/cecropin P1 fusion antimicrobial peptides and its growth-pr ||| ref [15] = [15]; PMID 26707031; doi:10.1111/asj.12540; 15. Tang Z Xu L Shi B Deng H Lai X Liu J . Oral administration of synthetic porcine beta-defensin-2 improves growth performance and cecal microbial flora and down-regulates the expression of intestina; conditions: cited from earlier work
[3] = assay type: biochemical, Escherichia coli O55:B5; conditions: PBD-2 1, 5, and 10 μg/ml mixed with LPS, 37°C, 10 min; n = 6
[4] = system: S. Typhimurium; set-up: species or system Salmonella Typhimurium 14028 (in mice); conditions: mouse, in vivo, po
[5] = system: LPS-induced production of cytokines; test: Serum cytokine levels of mice injected with LPS (ELISA); assay type: in vivo, mouse; conditions: 1 h, n = 6
Description: Six TG mice and six WT mice were separately injected with LPS (16 mg/kg body weight) intraperitoneally. The same number of TG mice and WT mice was injected with 100 μl of sterile PBS as a negative control. The sera from the mice in each group were collected 1 h after the injection to detect cytokines by ELISA.
The WT mice were injected with LPS alone or LPS with PBD-2 (0.5 mg/kg body weight) intraperitoneally (n = 6 each group) to detect the effect of synthetic PBD-2 on inflammation induced by LPS. The sera from the mice in each group were collected 1 h after the injection to detect the cytokines by ELISA.

[6] = PBD-2 overexpressed in TG pigs; ref [16]; cited from earlier work
Source text: The antibiotic resistance of pathogenic bacteria has become a global threat ([30]). Defensins are natural peptides secreted by many species and implicated in resisting bacterial infection ([31]). PBD-2 is one of the defensins expressed in pigs. […] The invasion of S. Typhimurium can increase the expression of PBD-2 in porcine epithelial cells ([32]). […] PBD-2 also improves the growth perf ...

[7] = system: S. Typhimurium; test: Histopathology of caecum of mice infected with S. Typhimurium; conditions: PBD-2 expressed in TG mice; oral 2.5 × 10^8 CFU; 24 h post-infection; H&E; vs WT
Description: Four infection experiments were conducted to determine the resistance to S. Typhimurium of the TG mice. For body weight measurements, 7 WT and 7 TG mice were orally administered with 2.5 × 10^8 CFU of S. Typhimurium, and the body weight of each mouse was measured on days 1, 2, 3, 4, and 5 after infection. For the detection of the tissue weight ratios, bacterial loads in tissues and tissue lesions after S. Typhimurium infection, 9 WT and 8 TG mice were orally administered with 2.5 × 10^8 CFU of S. Typhimurium. The spleen, caecum and body weights of the mice were weighed at 24 h post-infection. The bacterial loads in the tissues were also measured ([26]). The spleen and caecum were weighed and homogenized in cold PBS at a ratio of 4 ml per gram of tissue and coated plates. The bacterial numbers in the homogenates were counted by serially diluting the homogenates and spreading on plates. Caeca were harvested for histopathological analysis by using the methods described above. The intestinal damage, including epithelial damage, submucosal oedema, and neutrophil aggregation, was observed.

[8] = system: JNK; test: Western blot of JNK and p-JNK in RAW 264.7 cells; assay type: cell-based, mouse; conditions: LPS 30 min with various concentrations of PBD-2 (Figure S4)
Description: RAW 264.7 cells were treated with LPS (1 μg/ml) alone or together with PBD-2 (10 μg/mL). […] Proteins were firstly analyzed with SDS-PAGE and then electro-transferred onto a PVDF (#ISEQ00010, Biosharp®, Beijing, China) membrane. The PVDF membrane was blocked with 1/100 bovine serum albumin (BSA, #V900933-100G, VETEC, Sigma-Aldrich®, St. Louis, MO, USA) at 10 μg/ml at 37°C for 2 h, washed with PBST five times, incubated with the antisera against p-p65 (# 3033), p65 (# 4764), p-ERK (# 4370), ERK (# 4695), p-p38 (# 4511), p38 (# 8690), p-JNK (# 4668), JNK (# 9258) (Cell Signaling Technology®, Danvers, MA, USA), and β-actin (# AA128, Beyotime®, Shanghai, China) at 2 μg/ml at 37°C for 2 h and washed five times again. The PVDF membrane was subsequently incubated with 1 μg/ml secondary antibody, namely, goat anti-rabbit IgG (# 7074S, Cell Signaling Technology®, Danvers, MA, USA), at 37°C for 2 h and washed five times. Lastly, immune-reactive bands were detected using an ECF Western blot system (Tanon 5200 Multi, Shanghai, China) and quantified using AlphaImager 2200 analysis software.
Supplementary file Image_4.TIF: Figure S4 Effects of PBD-2 on ERK, p38, and JNK signaling pathways. Cells were treated with LPS for 30 min with or without various concentrations of PBD-2. […] The signal intensity of each band was quantified (B–D). […]

[9] = PBD-2 expressed in TG mice, LPS 16 mg/kg i.p., vs WT
[10] = synthetic PBD-2 0.5 mg/kg i.p. with LPS 16 mg/kg, WT mice, vs LPS alone

CC[C@H](C)[C@H](NC(=O)[C@@H]1CSSC[C@@H]2NC(=O)[C@@H]3CCCN3C(=O)[C@H](CO)NC(=O)[C@H](Cc3ccccc3)NC(=O)[C@H](CC(N)=O)NC(=O)[C@@H]3CSSC[C@H](NC(=O)[C@H]([C@@H](C)O)NC(=O)CNC(=O)[C@H](CCC(=O)O)NC(=O)[C@H]([C@@H](C)CC)NC(=O)[C@H](CCCNC(=N)N)NC(=O)[C@H](CC(N)=O)NC(=O)[C@H](Cc4ccccc4)NC(=O)[C@H](CC(C)C)NC(=O)[C@@H]4CCCN4C2=O)C(=O)N[C@@H](Cc2ccc(O)cc2)C(=O)N[C@@H](CO)C(=O)NCC(=O)N[C@@H](CCCCN)C(=O)N[C@@H](C)C(=O)N[C@@H](CCCCN)C(=O)N[C@@H](CSSC[C@H](NC(=O)[C@@H](NC(=O)[C@H](Cc2ccc(O)cc2)NC(=O)[C@H](Cc2c[nH]cn2)NC(=O)[C@@H](N)CC(=O)O)[C@@H](C)CC)C(=O)N[C@@H](C)C(=O)N[C@@H](CCCCN)C(=O)N[C@@H](CCCCN)C(=O)NCC(=O)NCC(=O)N[C@@H]([C@@H](C)O)C(=O)N3)C(=O)N1)C(=O)N[C@@H](CCCNC(=N)N)C(=O)O [PBD-2, Porcine beta-defensin 2] (HELM PEPTIDE1{D.H.Y.I.C.A.K.K.G.G.T.C.N.F.S.P.C.P.L.F.N.R.I.E.G.T.C.Y.S.G.K.A.K.C.C.I.R}$PEPTIDE1,PEPTIDE1,5:R3-34:R3|PEPTIDE1,PEPTIDE1,12:R3-27:R3|PEPTIDE1,PEPTIDE1,17:R3-35:R3$$$V2.0; N-terminus and C-terminus assumed)
NF-κB promoter activity after LPS induction ([1]; LPS 1 μg/ml with PBD-2 10 μg/mL, 24 h): inhibited the promoter activities of NF-κB after LPS induction (p < 0.01)
NF-κB promoter activity in the presence of TLR4 inhibitor ([1]; PBD-2 10 μg/mL with LPS 1 μg/ml, 24 h, after CLI-095 1 μg/ml): did not influence the NF-κB promoter activity in the presence of TLR4 inhibitor (NS, p > 0.05)
inhibitory effect on NF-κB promoter activity after pre-incubation with PBD-2 ([1]; PBD-2 10, 30, and 60 μg/ml for 30, 60, 120, or 240 min, then LPS): positively correlated with dose and incubation time with PBD-2 (p < 0.05)
growth performance, caecum microbial flora, inflammatory cytokine expression ([2]; oral administration, pigs, ref [15]): improve growth performance and caecum microbial flora and reduce the expression of inflammatory cytokines in pigs
growth and diarrhea in piglets ([2]; ref [13]): promote growth, alleviate diarrhea in piglets
endotoxic activity of LPS [3]: did not affect the endotoxic activity of LPS
survival at lower bacterial dose [4]: all the WT and TG mice survived until the end of the experiments
survival rate [4]: 70%
LPS-induced IL-1β in serum [5, 9]: significantly lower in the TG mice than in the WT mice (p < 0.05)
LPS-induced IL-6 in serum [5, 9]: significantly lower in the TG mice than in the WT mice (p < 0.05)
LPS-induced IL-12 in serum [5, 9]: significantly lower in the TG mice than in the WT mice (p < 0.05)
LPS-induced TNF-α in serum [5, 9]: significantly lower in the TG mice than in the WT mice (p < 0.05)
LPS-induced IL-1β in serum [5, 10]: significantly lower levels of secreted TNF-α, IL-6, IL-1β, and IL-12 than those injected with LPS alone (p < 0.05)
LPS-induced IL-6 in serum [5, 10]: significantly lower levels of secreted TNF-α, IL-6, IL-1β, and IL-12 than those injected with LPS alone (p < 0.05)
LPS-induced IL-12 in serum [5, 10]: significantly lower levels of secreted TNF-α, IL-6, IL-1β, and IL-12 than those injected with LPS alone (p < 0.05)
LPS-induced TNF-α in serum [5, 10]: significantly lower levels of secreted TNF-α, IL-6, IL-1β, and IL-12 than those injected with LPS alone (p < 0.05)
bactericidal activity of the serum of TG pigs [6]: higher than that of WT pigs
intestinal damage of the caecum (epithelial damage and submucosal oedema) [7]: significantly milder intestinal damage (epithelial damage and submucosal oedema)
neutrophil aggregation in the caecum [7]: less neutrophil aggregation compared with that of the WT mice
LPS-induced phosphorylation of JNK [8]: did not affect the LPS-induced phosphorylation of ERK, p38, and JNK
